The source of these data is paper PMC6337594 (2018).

The subject of assay [1] is CMA (DNA, G4) TAGGGAGGGTAGGGAGGGT
Briefly: gel mobility shift. The note with it: 100 mM K+; 40 µM CMA, 80 µM compound.

Assay [2] relates to biotinylated Tel48 (DNA, G4) TTAGGGTTAGGGTTAGGGTTAGGGTTAGGGTTAGGGTTAGGGTTAGGG
The experiment in a line: bio-layer interferometry, kinetic. The note with it: 100 mM K+; 10 mM Tris, 25 °C; two-site model, Kb = ka/kd; immobilised Tel48.

Assay [3] relates to Tel48 (DNA, G4) TTAGGGTTAGGGTTAGGGTTAGGGTTAGGGTTAGGGTTAGGGTTAGGG
Briefly: CD, ligand-induced G4 formation. The note with it: no K+; Tris buffer, 25 °C; 4 µM Tel48, 8 µM compound.

For assay [4] the test system is unchanged. Briefly: CD melting. The note with it: 100 mM K+; 10 mM Tris-HCl pH 7.5; compound concentration not stated.
Assay [5] relates to LD12 (DNA, duplex) GCGCAATTGCGC
The experiment in a line: fluorescence enhancement; pre-stained gel. The note with it: 100 mM K+; 15 µM H33258, 15 µM LD12.

As for `C[n+]1ccnc(/C=C/c2ccc3[nH]c4ccc(/C=C/c5c[n+](C)ccn5)cc4c3c2)c1`, the binding entry in assay [1] is recorded as “yes”. In assay [2], this molecule gave a Kb of 529000 M⁻¹.

Regarding `CN(C)c1ccc(Nc2c3ccc(NC(=O)CCN4CCCC4)cc3nc3cc(NC(=O)CCN4CCCC4)ccc23)cc1`, the binding result in assay [3] and in assay [1] was “yes” each time. This molecule registered a Kb in assay [2] of 9.84e+06 M⁻¹.

As for `C[n+]1ccc(-c2c3nc(c(-c4cc[n+](C)cc4)c4ccc([nH]4)c(-c4cc[n+](C)cc4)c4nc(c(-c5cc[n+](C)cc5)c5ccc2[nH]5)C=C4)C=C3)cc1`, the binding result in assay [3] and in assay [1] was “yes” each time. Moreover, the dTm in assay [4] is ~ 10 °C. The Kb in assay [2] stood at 1.55e+07 M⁻¹.

For `CN1CCN(c2ccc3nc(-c4ccc5nc(-c6ccc(O)cc6)[nH]c5c4)[nH]c3c2)CC1`, in assay [5], the binding entry is “yes”. In addition, the dTm in assay [4] is ~ 4 °C.

Take `C[n+]1ccccc1/C=C/c1ccc2[nH]c3ccc(/C=C/c4cccc[n+]4C)cc3c2c1`: the binding result in assay [3] and in assay [1] was “yes” each time. The molecule also registered a Kb in assay [2] of 2.38e+06 M⁻¹.

Take `NCCOc1cc(C(=O)Nc2cc(OCCN)c3ccccc3n2)nc(C(=O)Nc2cc(OCCN)c3ccccc3n2)c1`: in assay [3], the binding entry is on record as “yes”. In addition, the dTm in assay [4] was ~ 2 °C.
